According to the supplement of paper PMC10307832:

What was measured:
Assay in all cases: relative viability (nuclei count vs DMSO), 5 days (fraction); higher = more cells survive
HARA = test system: HARA
Method in brief: (§1)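 After 5 days of treatment, lung cancer cells in 1536-well plates were fixed and stained in a single step (final 0.05% Triton X-100, 1% formaldehyde, 1 ug/ml Hoechst) and their nuclei counted on 4× images. Treatment had been applied by pin tool the day after seeding as one drug alone or as a fixed anchor-drug dose with five library-drug doses (not always all listed) in √10 steps. Relative viability is the nuclei count of treated wells divided by that of vehicle wells, and values are medians of duplicate plates.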

LU99A = test system: LU99A
Method in brief: as §1

NCI-H2405 = test system: NCI-H2405
Method in brief: as §1

EMC-BAC-2 = test system: EMC-BAC-2
Method in brief: as §1

NCI-H1755 = test system: NCI-H1755
Method in brief: as §1

NCI-H460 = test system: NCI-H460
Method in brief: as §1

EPLC-272H = test system: EPLC-272H
Method in brief: as §1

NCI-H647 = test system: NCI-H647
Method in brief: as §1

ChaGo-K-1 = test system: ChaGo-K-1
Method in brief: as §1

EKVX = test system: EKVX
Method in brief: as §1

SW 900 = test system: SW 900
Method in brief: as §1

NCI-H596 = test system: NCI-H596
Method in brief: as §1

COR-L 105 = test system: COR-L 105
Method in brief: as §1

NCI-H1650 = test system: NCI-H1650
Method in brief: as §1

NCI-H1993 = test system: NCI-H1993
Method in brief: as §1

NCI-H1734 = test system: NCI-H1734
Method in brief: as §1

RERF-LC-KJ = test system: RERF-LC-KJ
Method in brief: as §1

A-427 = test system: A-427
Method in brief: as §1

NCI-H358 = test system: NCI-H358
Method in brief: as §1

LK-2 = test system: LK-2
Method in brief: as §1

CN1CCN(CCOc2cc(OC3CCOCC3)c3c(Nc4c(Cl)ccc5c4OCO5)ncnc3c2)CC1 [Saracatinib] + COc1cc2c(Oc3ccc(NC(=O)C4(C(=O)Nc5ccc(F)cc5)CC4)cc3F)ccnc2cc1OCCCN1CCOCC1 [Foretinib] (partner 0.25 µM)
relative viability (HARA; first compound 0.02 µM): 0.873 | relative viability (HARA; first compound 0.2 µM): 0.751 | relative viability (HARA; first compound 0.6325 µM): 0.739 | relative viability (HARA; first compound 2 µM): 0.368 | relative viability (LU99A; first compound 0.02 µM): 0.811 | relative viability (LU99A; first compound 0.2 µM): 0.562 | relative viability (LU99A; first compound 0.6325 µM): 0.831 | relative viability (LU99A; first compound 2 µM): 0.536 | relative viability (NCI-H2405; first compound 0.02 µM): 1.03 | relative viability (NCI-H2405; first compound 0.2 µM): 0.94 | relative viability (NCI-H2405; first compound 0.6325 µM): 0.98 | relative viability (NCI-H2405; first compound 2 µM): 0.658 | relative viability (EMC-BAC-2; first compound 0.02 µM): 1.01 | relative viability (EMC-BAC-2; first compound 0.2 µM): 0.8 | relative viability (EMC-BAC-2; first compound 0.6325 µM): 1.01 | relative viability (EMC-BAC-2; first compound 2 µM): 0.704 | relative viability (NCI-H1755; first compound 0.02 µM): 0.936 | relative viability (NCI-H1755; first compound 0.2 µM): 0.849 | relative viability (NCI-H1755; first compound 0.6325 µM): 0.821 | relative viability (NCI-H1755; first compound 2 µM): 0.792 | relative viability (NCI-H460; first compound 0.02 µM): 1.02 | relative viability (NCI-H460; first compound 0.2 µM): 0.882 | relative viability (NCI-H460; first compound 0.6325 µM): 1.06 | relative viability (NCI-H460; first compound 2 µM): 0.867 | relative viability (EPLC-272H; first compound 0.02 µM): 0.403 | relative viability (EPLC-272H; first compound 0.2 µM): 0.73 | relative viability (EPLC-272H; first compound 0.6325 µM): 0.646 | relative viability (EPLC-272H; first compound 2 µM): 0.435 | relative viability (NCI-H647; first compound 0.02 µM): 0.997 | relative viability (NCI-H647; first compound 0.2 µM): 1.14 | relative viability (NCI-H647; first compound 0.6325 µM): 1.04 | relative viability (NCI-H647; first compound 2 µM): 1.12 | relative viability (ChaGo-K-1; first compound 0.02 µM): 0.943 | relative viability (ChaGo-K-1; first compound 0.2 µM): 0.699 | relative viability (ChaGo-K-1; first compound 0.6325 µM): 0.973 | relative viability (ChaGo-K-1; first compound 2 µM): 0.874 | relative viability (EKVX; first compound 0.02 µM): 0.866 | relative viability (EKVX; first compound 0.6325 µM): 0.268 | relative viability (EKVX; first compound 2 µM): 0.401 | relative viability (SW 900; first compound 0.02 µM): 0.78 | relative viability (SW 900; first compound 0.2 µM): 0.737 | relative viability (SW 900; first compound 0.6325 µM): 0.919 | relative viability (SW 900; first compound 2 µM): 0.776 | relative viability (NCI-H596; first compound 0.02 µM): 0.874 | relative viability (NCI-H596; first compound 0.2 µM): 0.641 | relative viability (NCI-H596; first compound 0.6325 µM): 0.826 | relative viability (NCI-H596; first compound 2 µM): 0.591 | relative viability (COR-L 105; first compound 0.02 µM): 0.973 | relative viability (COR-L 105; first compound 0.2 µM): 1.04 | relative viability (COR-L 105; first compound 0.6325 µM): 1.09 | relative viability (COR-L 105; first compound 2 µM): 0.816 | relative viability (NCI-H1650; first compound 0.02 µM): 0.948 | relative viability (NCI-H1650; first compound 0.2 µM): 0.775 | relative viability (NCI-H1650; first compound 0.6325 µM): 0.46 | relative viability (NCI-H1650; first compound 2 µM): 0.456 | relative viability (NCI-H1993; first compound 0.02 µM): 0.692 | relative viability (NCI-H1993; first compound 0.2 µM): 0.625 | relative viability (NCI-H1993; first compound 0.6325 µM): 0.696 | relative viability (NCI-H1993; first compound 2 µM): 0.552 | relative viability (NCI-H1734; first compound 0.02 µM): 0.852 | relative viability (NCI-H1734; first compound 0.6325 µM): 0.805 | relative viability (NCI-H1734; first compound 2 µM): 0.605 | relative viability (RERF-LC-KJ; first compound 0.02 µM): 0.895 | relative viability (RERF-LC-KJ; first compound 0.2 µM): 0.855 | relative viability (RERF-LC-KJ; first compound 0.6325 µM): 0.917 | relative viability (RERF-LC-KJ; first compound 2 µM): 0.877 | relative viability (A-427; first compound 0.02 µM): 1.09 | relative viability (A-427; first compound 0.2 µM): 1.09 | relative viability (A-427; first compound 0.6325 µM): 1.07 | relative viability (A-427; first compound 2 µM): 0.99 | relative viability (NCI-H358; first compound 0.02 µM): 0.761 | relative viability (NCI-H358; first compound 0.2 µM): 0.534 | relative viability (NCI-H358; first compound 0.6325 µM): 0.421 | relative viability (NCI-H358; first compound 2 µM): 0.213 | relative viability (LK-2; first compound 0.02 µM): 0.997 | relative viability (LK-2; first compound 0.2 µM): 1.09 | relative viability (LK-2; first compound 0.6325 µM): 1.41 | relative viability (LK-2; first compound 2 µM): 0.537
